The text below walks through data of patent US20240327334A1, “Covalent Inhibitors As Antiviral Agents” (Enanta Pharmaceuticals, Inc., priority 2022, published 2024).

Some results are limits rather than exact numbers.

The target in the experiment is SARS-CoV-2 Papain-like (PLpro) protease (Severe acute respiratory syndrome coronavirus 2, UniProt P0DTD1). The experiment can be described thus: SARS-CoV-2 Papain-like (PLpro) protease biochemical enzyme inhibition assay (ubiquitin-fluorophore substrate, Ub-R110). The settings on record: Ub-R110 substrate; run in duplicate; read-out: PLpro IC50.

A word on the IC50: it is the concentration that inhibits the measured activity by half.

On to `N#CN1CC(NC(=O)C(=O)NCc2ccccc2C(=O)NC2(c3cccc4ccccc34)CC2)C1` [Example 436, N1-(1-cyanoazetidin-3-yl)-N2-(2-((1-(naphthalen-1-yl)cyclopropyl)carbamoyl)benzyl)oxalamide], for which the IC50 was 100 to 1000 nM.

With `N#C/C=C/CCNC(=O)C(=O)NCc1ccccc1C(=O)NC1(c2ccc3c4c(cccc24)CC3)CC1` [Example 437], the IC50 was 100 to 1000 nM.

As for `C[C@@H](NC(=O)c1ccccc1CNC(=O)C(=O)NCC#N)c1cc(-c2ccsc2)cc(C(F)(F)F)c1` [Example 466], the IC50 is more than 10000 nM.

Take `N#CCNC(=O)C(=O)NCc1ccccc1C(=O)NC1(c2cc(-c3ccccc3)cc(C(F)(F)F)c2)CC1` [Example 468]: the IC50 was in the range of 100 to 1000 nM.

For the compound `Cc1cnn(C)c1-c1cc(C(F)(F)F)cc(C2(NC(=O)c3ccccc3CNC(=O)C(=O)NCC#N)CC2)c1` [Example 474], the IC50 lay within 100 to 1000 nM.

As to `C#CCNC(=O)C(=O)NCc1ccccc1C(=O)NC1(c2cc(-c3c(C)cnn3C)cc(C(F)(F)F)c2)CC1` [Example 475], the IC50 lay within 100 to 1000 nM.

With `Cc1nnc(-c2cc(-c3nnc(C)o3)cc(C3(NC(=O)c4ccccc4CNC(=O)C(=O)NCC#N)CC3)c2)o1` [Example 478], the IC50 is 100 to 1000 nM.

In the case of `C#CCNC(=O)C(=O)NCc1ccccc1C(=O)NC1(c2cc(-c3nnc(C)o3)cc(-c3nnc(C)o3)c2)CC1` [Example 479], the IC50 fell in the range of 100 to 1000 nM.

Turning to `Cc1nn(C)cc1-c1cc(Cl)cc(C2(NC(=O)c3ccccc3CNC(=O)C(=O)NCC#N)CC2)c1` [Example 482], the IC50 was less than 100 nM.

As to `Cc1nnc(-c2cc(Cl)cc(C3(NC(=O)c4ccccc4CNC(=O)C(=O)NCC#N)CC3)c2)o1` [Example 483], the IC50 is 100 to 1000 nM.

On to `O=C(NCC#Cc1nccs1)C(=O)NCc1ccccc1C(=O)NC1(c2cc(Cl)cc(-c3nccs3)c2)CC1` [Example 488], for which the 50% inhibitory concentration (IC50) was less than 100 nM.

As to `C=CCNC(=O)C(=O)NCc1ccccc1C(=O)NC1(c2ccc3ccccc3c2)CC1` [Example 497], the IC50 was more than 10000 nM.

On to `N#CN1CC[C@@H]1CNC(=O)C(=O)NCc1ccccc1C(=O)NC1(c2cccc3ccccc23)CC1` [Example 498], for which the IC50 fell in the range of 100 to 1000 nM.

With `NC(=O)N1CC[C@@H]1CNC(=O)C(=O)NCc1ccccc1C(=O)NC1(c2cccc3ccccc23)CC1` [Example 499], the IC50 is 1000 to 10000 nM.

For the compound `NC(=O)N1CC[C@H]1CNC(=O)C(=O)NCc1ccccc1C(=O)NC1(c2cccc3ccccc23)CC1` [Example 501], the IC50 is 1000 to 10000 nM.

As for `N#CN1CC[C@H](CNC(=O)C(=O)NCc2ccccc2C(=O)NC2(c3cccc4ccccc34)CC2)C1` [Example 502], the IC50 lay within 100 to 1000 nM.

`NC(=O)N1CC[C@H](CNC(=O)C(=O)NCc2ccccc2C(=O)NC2(c3cccc4ccccc34)CC2)C1` [Example 503]: the IC50 fell in the range of 1000 to 10000 nM.

Turning to `NC(=O)N1CCC[C@H]1CNC(=O)C(=O)NCc1ccccc1C(=O)NC1(c2cccc3ccccc23)CC1` [Example 505], the IC50 was in the range of 1000 to 10000 nM.

Take `CC(C)(C)OC(=O)N1CCC[C@@H]1CNC(=O)C(=O)NCc1ccccc1C(=O)NC1(c2cccc3ccccc23)CC1` [Example 506]: the IC50 was more than 10000 nM.

Consider `CC(C)(C)OC(=O)N1CC[C@@H](CNC(=O)C(=O)NCc2ccccc2C(=O)NC2(c3cccc4ccccc34)CC2)C1` [Example 507], for which the IC50 is more than 10000 nM.

In the case of `N#CN1CCC[C@@H]1CNC(=O)C(=O)NCc1ccccc1C(=O)NC1(c2cccc3ccccc23)CC1` [Example 508], the IC50 fell in the range of 100 to 1000 nM.

In the case of `COc1cc(C2(NC(=O)c3ccccc3CNC(=O)C(=O)NC[C@@H]3CCCN3)CC2)cc2cn(C3CC3)nc12` [Example 511], the IC50 fell in the range of 1000 to 10000 nM.

As to `COc1cc(C2(NC(=O)c3ccccc3CNC(=O)C(=O)NC[C@@H]3CCN3)CC2)cc2cn(C3CC3)nc12` [Example 512], the IC50 lay within 1000 to 10000 nM.

In the case of `COc1cc(C2(NC(=O)c3ccccc3CNC(=O)C(=O)NCC(O)C(F)(F)F)CC2)cc2cn(C3CC3)nc12` (stereo not drawn) [Example 513], the IC50 is more than 10000 nM.

With `COc1cc(C2(NC(=O)c3ccccc3CNC(=O)C(=O)NC[C@@H]3CCN3C#N)CC2)cc2cn(C3CC3)nc12` [Example 516], the IC50 is less than 100 nM.

With `O=C(C#CCNC(=O)C(=O)NCc1ccccc1C(=O)NC1(c2ccc3ccccc3c2)CC1)Nc1ccccc1` [Example 521], the IC50 lay in the range of 100 to 1000 nM.

Turning to `O=C(C#CCNC(=O)C(=O)NCc1ccccc1C(=O)NC1(c2cc(-c3cccs3)cc(C(F)(F)F)c2)CC1)NC1CC1` [Example 522], the IC50 lay in the range of 100 to 1000 nM.

On to `O=C(NCC#CC1CC1)C(=O)NCc1ccccc1C(=O)NC1(c2ccc3ccccc3c2)CC1` [Example 523], for which the IC50 is more than 10000 nM.

In the case of `C#CCNC(=O)C(=O)NCc1ccccc1C(=O)NC1(c2cccc3c2ccn3C)CC1` [Example 530], the IC50 lay in the range of 100 to 1000 nM.

As for `C[C@@H](C#Cc1nccs1)NC(=O)C(=O)NCc1ccccc1C(=O)NC1(c2cccc3c2ccn3C)CC1` [Example 531], the IC50 was less than 100 nM.

Regarding `Cn1ccc2c(C3(NC(=O)c4ccccc4CNC(=O)C(=O)NCC#N)CC3)cccc21` [Example 533], the IC50 was in the range of 100 to 1000 nM.

`O=C(C#CCNC(=O)C(=O)NCc1ccccc1C(=O)NC1(c2cc(-c3cnn(C4CC4)c3)cc(C(F)(F)F)c2)CC1)NC1CC1` [Example 534]: the IC50 lay in the range of 100 to 1000 nM.

Regarding `N#CCNC(=O)C(=O)NCc1ccccc1C(=O)NC1(c2ccc(-c3ccc(F)cc3)cc2)CC1` [Example 542], the IC50 is more than 10000 nM.

With `N#CCNC(=O)C(=O)NCc1ccccc1C(=O)NC1(c2ccc(Br)cc2)CC1` [Example 544], the IC50 was in the range of 1000 to 10000 nM.

With `COC(=O)/C=C/CN(C)C(=O)C(=O)NCc1ccccc1C(=O)N[C@H](C)c1cccc2ccccc12` [Example 546], the IC50 was in the range of 1000 to 10000 nM.

On to `COC(=O)/C=C/CNC(=O)C(=O)N(C)Cc1ccccc1C(=O)N[C@H](C)c1cccc2ccccc12` [Example 547], for which the concentration for half-maximal inhibition (IC50) is more than 10000 nM.

Consider `CC(C)(C)OC(=O)NNC(=O)/C=C/CNC(=O)C(=O)NCc1ccccc1C(=O)NC1(c2cccc3ccccc23)CC1` [Example 548], for which the IC50 was in the range of 100 to 1000 nM.

For the compound `C[C@@H](NC(=O)c1ccccc1CNC(=O)C(=O)NC/C=C/C(=O)N1CCCNC(=O)C1)c1cccc2ccccc12` [Example 549], the IC50 fell in the range of 100 to 1000 nM.

With `C[C@@H](NC(=O)c1ccccc1CNC(=O)C(=O)NC/C=C/C(=O)N1CC[C@H](C#N)C1)c1cccc2ccccc12` [Example 550], the IC50 was more than 10000 nM.

For `C[C@@H](NC(=O)c1ccccc1CNC(=O)C(=O)NC/C=C/C(=O)NC(C)(C)CO)c1cccc2ccccc12` [Example 551], the IC50 lay in the range of 1000 to 10000 nM.

For `CCCOC(=O)/C=C/CNC(=O)C(=O)NCc1ccccc1C(=O)NC1(c2cccc3ccccc23)CC1` [Example 552], the IC50 is 100 to 1000 nM.

Consider `NNC(=O)/C=C/CNC(=O)C(=O)NCc1ccccc1C(=O)NC1(c2cccc3ccccc23)CC1` [Example 553], for which the IC50 lay within 100 to 1000 nM.

For `Cc1cccc(C)c1NC(=O)/C=C/CNC(=O)C(=O)NCc1ccccc1C(=O)NC1(c2cccc3ccccc23)CC1` [Example 562], the IC50 was more than 10000 nM.

Regarding `COCC(C)(C)NC(=O)/C=C/CNC(=O)C(=O)NCc1ccccc1C(=O)N[C@H](C)c1cccc2ccccc12` [Example 565], the IC50 was 1000 to 10000 nM.

Regarding `O=C(NC/C=C/c1ccccn1)C(=O)NCc1ccccc1C(=O)NC1(c2ccc3ccccc3c2)CC1` [Example 578], the IC50 lay within 100 to 1000 nM.
